According to patent publication US20260184669A1, “LIPID COMPOUND AND COMPOSITION FOR DELIVERY OF ACTIVE SUBSTANCE” (KOREA RESEARCH INSTIUTE OF BIOSCIENCE AND BIOTECHNOLOGY, priority 2022, published 2026):

Assays:
[1] = Size, polydispersity index and surface charge of mRNA-LNP (Malvern Zetasizer Nano ZS90); assay type: physicochemical; conditions: for PDI / size (nm) Number: mRNA-LNP made with the ionizable lipid at its optimal formulation (Table 2); for size (nm) Number: diluted with PBS to 1 μg/mL mRNA; for Zeta (mV): surface charge of mRNA-LNP made with the ionizable lipid at its optimal formulation (Table 2)
Method: Each mRNA-LNPs produced in Example 27 was diluted with PBS to a final mRNA concentration of 1 μg/mL. The size, polydispersity index (PDI), and surface charge of the mRNA-LNPs were then measured using a Malvern Zetasizer Nano ZS90 (Malvern Instruments, UK).
For particles intended for systemic administration, such as via blood vessels, the particle size must be less than 200 nm in order to pass through the endothelial capillaries of the liver. In addition, the size distribution is considered uniform only when the PDI is 0.3 or less, which enables consistent and efficient therapeutic effects (Non-patent document 3 [Danaei, M. et al). Pharmaceutics 2018, 10, 57]).

[2] = mRNA encapsulation efficiency (Quant-IT RiboGreen RNA assay); assay type: physicochemical; conditions: mRNA encapsulation efficiency of mRNA-LNP made with the ionizable lipid; average of two measurements
Method: The mRNA encapsulation efficiency (EE, %) of LNPs containing mRNA was measured using the Quant-IT™ RiboGreen® RNA assay kit (Invitrogen, USA).
The diluted samples were added to each well of a 96-well plate. Group A (without Triton X-100) was supplemented with 50 μL of 1×TE buffer, while Group B (with Triton X-100) was supplemented with 50 μL of 1×TE buffer containing 2% Triton-X 100. To release the encapsulated mRNA, the LNPs were treated with Triton-X 100 and incubated at 37° C. for 10 minutes. Subsequently, 100 μL of ribogreen reagent was added to each well. The fluorescence intensities of Group A and Group B were measured using a multi-plate reader (λex 480 nm, λem 520 nm), and mRNA encapsulation efficiency (%) was calculated using Equation 1 below. The encapsulation efficiency for each LNP was determined as the average of two independent measurements.

[3] = test system: female C57BL/6 mice; assay: Protein expression efficiency of fLuc mRNA-LNPs after intramuscular injection (IVIS whole-body luminescence); assay type: in vivo; conditions: for Total flux 1 hour / Total flux 3 hours / Total flux 6 hours / Total flux 48 hours / Total flux 72 hours / Total flux: fLuc mRNA-LNP, intramuscular injection, luminescence at injection site, mice; for Total flux 1 hour: 1 hour after administration; for Total flux 3 hours: 3 hours after administration; for Total flux 6 hours: 6 hours after administration; for Total flux 48 hours: 48 hours after administration; for Total flux 72 hours: 72 hours after administration; for Total flux: after administration; for Fold increase in total flux at 3 h, MC3: relative to control LNP formulated with MC3; for Fold increase in total flux at 3 h, MC3 / Fold increase in total flux at 3 h, SM-102: 3 hours after intramuscular injection; for Fold increase in total flux at 3 h, SM-102: relative to control LNP formulated with SM-102
Method: fLuc mRNA-LNPs formulated using various ionizable lipids were prepared according to the method described in Example 27 and administered in vivo via intramuscular (I. M.) or intravenous (IV.) injection to compare the resulting protein expression efficiency in vivo. As a control, EGFP mRNA-LNPs formulated with commercially available ionizable lipids MC3 or SM-102 were used. All mRNA-LNPs were administered at equal mRNA doses per body weight across different concentration groups (n≥4).
Specifically, the dose of mRNA-LNPs was adjusted to 0.1-0.5 mg/kg of body weight, and the formulation was administered via I.M. or I.V. injection to female C57BL/6 mice (6-10 weeks old, Orient Bio, Korea) Subsequently, […], whole-body luminescence images were acquired using an in vivo imaging system (IVIS Lumina III, PerkinElmer, Walzam, MA, USA). To assess protein expression levels, 200 μL of D-luciferin (15 mg/mL) was administered via intraperitoneal (I.P.) injection 10 minutes prior to imaging. During image acquisition, the animals were anesthetized by inhalation of 3% isoflurane in 97% medical grade oxygen. In addition, the acquired luminescence images were quantitatively analyzed using imaging software (Living Image Software Version 4.4; PerkinElmer, USA).
After intramuscular injection of the fLuc mRNA-LNPs, the luminescence intensity at the injection site was measured over time.
Furthermore, the luminescence intensity at the injection site 3 hours after intramuscular injection was measured, and the relative protein expression efficiency was compared to that of control LNPs formulated with MC3 or SM-102.

[4] = Stability of mRNA-LNPs according to storage temperature and duration; assay type: physicochemical; conditions: for Normalized EE % D-1 / Size (nm) D-1 / PDI D-1: day 1; for Normalized EE % D-7 / PDI D-7 / Size (nm) D-7: day 7; for Normalized EE % D-30 / PDI D-30 / Size (nm) D-30: day 30
Method: Stability of fLuc mRNA-LNPs produced using various ionizable lipids according to the method of Example 27, was assessed by storing the LNPs at 4° C. and 25° C. At 1, 7, and 30 days post-manufacture, the size, PDI, and encapsulation efficiency (EE) of each mRNA-LNPs samples were measured using the methods described in Experimental Examples 2 and 3.

Compound | PDI [1] | size (nm) Number [1] [nm] | Zeta (mV) [1] [mV] | EE (%) [2] [%] | Total flux 1 hour [3] | Total flux 3 hours [3] | Total flux 6 hours [3] | Total flux 48 hours [3] | Total flux 72 hours [3] | Total flux [3] | Fold increase in total flux at 3 h, MC3 [3] | Fold increase in total flux at 3 h, SM-102 [3] | Normalized EE % D-1 ([4]; fLuc mRNA-LNP stored at 4° C.) [%] | Size (nm) D-1 ([4]; fLuc mRNA-LNP stored at 4° C.) [nm] | Normalized EE % D-7 ([4]; fLuc mRNA-LNP stored at 4° C.) [%] | PDI D-7 ([4]; fLuc mRNA-LNP stored at 4° C.) | Size (nm) D-7 ([4]; fLuc mRNA-LNP stored at 4° C.) [nm] | Normalized EE % D-30 ([4]; fLuc mRNA-LNP stored at 4° C.) [%] | PDI D-30 ([4]; fLuc mRNA-LNP stored at 4° C.) | Size (nm) D-30 ([4]; fLuc mRNA-LNP stored at 4° C.) [nm] | also measured
CCCCCCCCCCCOC(=O)CCCCCN(CCCCCCCC(=O)OC(CCCCCCCC)CCCCCCCC)CC(O)CCCCNC(=O)c1cccn1C (stereo not shown) [Compound 18, Heptadecan-9-yl 8-((2-hydroxy-6-(1-methyl-1H-pyrrole-2-carboxamido)hexyl) (6-oxo-6-(undecyloxy)hexyl)amino)octanoate] | 0.145 | 125 | −1.04 | 88 | 1.63E+06 | 7.75E+06 | 1.56E+07 | 1.54E+05 | 1.96E+05 | 1.70E+06 | 0.63 | 0.07 | 88.0 | 124.6 | 85.3 | 0.064 | 121.4 | 87.6 | 0.106 | 126.6 | Normalized EE % D-1 ([4]; fLuc mRNA-LNP stored at 25° C.): 88.0%; PDI D-1 ([4]; fLuc mRNA-LNP stored at 25° C.): 0.145; Size (nm) D-1 ([4]; fLuc mRNA-LNP stored at 25° C.): 124.6 nm; Normalized EE % D-7 ([4]; fLuc mRNA-LNP stored at 25° C.): 85.6%; PDI D-7 ([4]; fLuc mRNA-LNP stored at 25° C.): 0.016; Size (nm) D-7 ([4]; fLuc mRNA-LNP stored at 25° C.): 126.1 nm; Normalized EE % D-30 ([4]; fLuc mRNA-LNP stored at 25° C.): 87.0%; PDI D-30 ([4]; fLuc mRNA-LNP stored at 25° C.): 0.125; Size (nm) D-30 ([4]; fLuc mRNA-LNP stored at 25° C.): 127.5 nm
CCCCCCCCCCCOC(=O)CCCCCN(CCCCCCCC(=O)OC(CCCCCCCC)CCCCCCCC)CC(O)CCCCNC(=O)c1ncc[nH]1 (stereo not shown) [Compound 33, Heptadecan-9-yl 8-((2-hydroxy-6-(1H-imidazole-2-carboxamido)hexyl)(6-oxo-6-(undecyloxy)hexyl)amino)octanoate] | 0.145 | 113 | −8.94 | 90 | 1.80E+06 | 1.17E+07 | 1.26E+07 | 4.56E+05 | 4.96E+05 | 2.62E+06 | 0.94 | 0.10 | 90.0 | 112.8 | 83.3 | 0.079 | 120.3 | 89.3 | 0.113 | 115.6 | Normalized EE % D-1 ([4]; fLuc mRNA-LNP stored at 25° C.): 90.0%; PDI D-1 ([4]; fLuc mRNA-LNP stored at 25° C.): 0.145; Size (nm) D-1 ([4]; fLuc mRNA-LNP stored at 25° C.): 112.8 nm; Normalized EE % D-7 ([4]; fLuc mRNA-LNP stored at 25° C.): 82.1%; PDI D-7 ([4]; fLuc mRNA-LNP stored at 25° C.): 0.133; Size (nm) D-7 ([4]; fLuc mRNA-LNP stored at 25° C.): 122.9 nm; Normalized EE % D-30 ([4]; fLuc mRNA-LNP stored at 25° C.): 87.2%; PDI D-30 ([4]; fLuc mRNA-LNP stored at 25° C.): 0.113; Size (nm) D-30 ([4]; fLuc mRNA-LNP stored at 25° C.): 106.4 nm
